Test results: US10543247B2, “Aloe preparation for skin enhancement” (Woodcliff Skincare Solutions, Inc., priority 2007, dated 2020)

Legend:
scald hyperalgesia = settings: compared with phenylbutazone; cited from earlier work
human TLR2 = biological target: T1, human TLR2 (Homo sapiens, UniProt O60603); assay: TLR2 expression vector experiment: HEK 293 cells with NF-kappa B reporter and pDUO-hCD14/TLR2; format: cell-based; settings: HEK 293 cells expressing TLR2 and CD14; 6 hours; FIG. 10B
T1 construct: host or cells: HEK 293 cells, transient transfection by electroporation
Method: HEK 293 cells were cultured in DMEM/F12 medium supplemented with fetal bovine serum (10%) and 1% penicillin-streptomycin at 37° C., under 5% CO2. Actively growing cells were transiently transfected with the appropriate plasmid(s) using electroporation (at 150 V and one 70-ms pulse). Following electroporation, cells were plated at a density of 5×10^4 cells in 200 μl/well of culture medium. After 48 hours, agents to be tested were added to transfected cells. Six hours after addition of samples, cells were harvested and luciferase activity measured. The NF-kappa B plasmid construct (pBIIXLUC) contained two copies of NF-kappa B motif from HIV/IgK. Plasmids co-expressing human CD14 and human TLR2 (pDUO-hCD14/TLR2) were purchased from InvivoGen. Zymosan was purchased from Sigma, Staphylococcus aureus peptidoglycan from Fluka and ultra pure Salmonella minnesota LPS from List Biological Laboratories, Inc.
FIGS. 10A-10B depict that AloeEx (batch 2-5-05) acts through TLR2. HEK 293 cells (cell line with minimal TLR expression) were transiently transfected with a luciferase reporter gene construct containing two binding sites for NF-kappa B, alone (FIG. 10A), or in combination with the pDUO-hCD14/TLR2 expression plasmid (FIG. 10B). […] Luciferase activity was determined 6 hours after addition of agents.

T1 sequence (O60603 21-784): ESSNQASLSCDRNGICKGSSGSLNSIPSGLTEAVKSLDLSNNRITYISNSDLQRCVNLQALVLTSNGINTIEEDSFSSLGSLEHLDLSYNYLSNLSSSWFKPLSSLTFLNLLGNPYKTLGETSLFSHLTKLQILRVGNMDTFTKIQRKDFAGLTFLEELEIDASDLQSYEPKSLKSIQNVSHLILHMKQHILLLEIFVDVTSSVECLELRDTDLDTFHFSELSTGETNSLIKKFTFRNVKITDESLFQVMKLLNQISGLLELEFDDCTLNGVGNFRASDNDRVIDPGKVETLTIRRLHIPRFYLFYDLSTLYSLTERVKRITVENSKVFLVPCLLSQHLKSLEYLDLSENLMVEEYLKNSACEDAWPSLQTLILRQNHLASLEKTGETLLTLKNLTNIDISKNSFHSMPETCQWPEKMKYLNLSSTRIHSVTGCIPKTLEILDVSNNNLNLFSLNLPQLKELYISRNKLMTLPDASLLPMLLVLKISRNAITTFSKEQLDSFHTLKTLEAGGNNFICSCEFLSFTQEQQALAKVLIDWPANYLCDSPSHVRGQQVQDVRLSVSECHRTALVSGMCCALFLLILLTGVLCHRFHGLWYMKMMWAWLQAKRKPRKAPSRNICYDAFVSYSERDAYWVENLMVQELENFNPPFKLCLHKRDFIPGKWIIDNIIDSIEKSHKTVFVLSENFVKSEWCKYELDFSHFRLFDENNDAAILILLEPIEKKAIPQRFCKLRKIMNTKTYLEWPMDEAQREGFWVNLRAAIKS

O-acetylated-D-mannan [O-acetylated-D-mannan (T-2-HN)]
inhibitory effect on scald hyperalgesia (scald hyperalgesia): more marked inhibitory effect than phenylbutazone

peptidoglycan
activation of NF-kappa B (human TLR2): also activated NF-kappa B
